Laboratory results reported in US10335382B2, “Use of hydrogen sulfide synthesis inhibitors for cancer therapy” (THE BOARD OF REGENTS OF THE UNIVERSITY OF TEXAS SYSTEM, priority 2013, dated 2019).
“Also recorded” adds a separate entry of the source. Read-outs that look alike come from different tables or passages of the source.

How the values were obtained:
HCT116 colon cancer cell [1] = experiment: HCT116 colon cancer cell proliferation (xCELLigence); type: cell-based, human; settings: Homo sapiens, HCT-116
Experimental: Cellular proliferation assays are conducted in HCT116 CRC cells in vitro, using the Roche XCelligence method. Concentration-response curves with the various AOAA analogs are prepared (concentration range: 1, 3, 10, 100, 300 and 600 μM). AOAA is used as the reference control, which, according to preliminary data, has an IC50 of approximately 300 μM. Control proliferation studies in the non-carcinogenic colonic epithelial cell line NCM356 are used to confirm cancer-cell selectivity. Since the NCM356 cells contain low levels of CBS, based on previous studies it is expect that AOAA (and its prodrugs) will only exert modest antiproliferative effects in these cells. Proliferation-inhibitory effects of the AOAA prodrugs in NCM356 cells indicate CBS-independent pharmacological actions. A collection of human colorectal tumor tissue samples (and surrounding non-cancerous tissue) are used to test the conversion of the AOAA prodrugs to AOAA in a number of cancer samples.
Cellular migration and invasion assays were performed as described (Chao et al. (1996) Cancer Res. 56:4811-19). Briefly, 10^5 cells were suspended in serum-free media containing 0.1% BSA and then added to 6.5 mm Transwell chambers ([…]) uncoated (migration assay) or coated with a thin layer (45 μl) of growth factor reduced matrigel (cell invasion assay). Cells were allowed to migrate toward the bottom chamber containing fibroblast (NIH-3T3 cells) conditioned media at 37° C. for 6 or 24 h for cell migration and invasion, respectively. Migrated and invaded cells were then fixed in Carson's fixative, stained in 0.33% toluidine blue and quantified by visual counting. For the HCT116-EAhy926 co-culture experiment, the cancer cell line was grown to confluence in the bottom wells of the transwell chambers and then endothelial cell migration was assessed (Coletta et al. (2012) Proc Natl Acad Sci USA. 109:9161-66). For assessment of colon cell proliferation, the xCELLigence system (Roche) was used (Szabo and Papapetropoulos (2011) Br J Pharmacol. 164:853-65).
For assessment of cell proliferation, the xCELLigence system (Roche) was used. Briefly, HCT116 cells were cultured until approximately 70% confluence. Cells were then detached by Trypsin-EDTA and resuspended in fresh culture media at a concentration of 30,000 cells/ml. 200 μl of cell suspension was added to each well (6,000 cells/well) of a E-plate 96, a specially designed 96-well microtiter plate containing interdigitated microelectrodes to non-invasively monitor the cell proliferation by measuring the relative change in the electrical impedance of the cell monolayer, a unitless parameter named cell index (CI). Cells were then treated with YD02-51 and proliferation was monitored for 48 hours.

HCT116 colon cancer cell [2] = settings: cell-based assays (Szabo et al. 2013); cited from earlier work
[3] = tested on: patient-derived colon cancer xenografts; experiment: Patient-derived tumor xenograft (PDTX) growth; type: in vivo, nu/nu mice; settings: AOAA 9 mg/kg/day s.c.
Experimental: Nu/nu Balb/C female mice (8-10 weeks) were injected subcutaneously in the right and left dorsum (10^6 cells/side with HCT-116 cells). One week later, the mice were randomized and subcutaneous injections of phosphate buffered saline (PBS) or AOAA (9 mg/kg/day) were performed 6 days/week. Tumor diameters were measured transcutaneously using calipers and tumor volumes were calculated using the formula V=(π/6)hd^2. T-test comparisons of the tumor volumes and final weights at harvest were performed. Xenotrials with patient-derived xenografts (PTX) were performed on nu/nu mice implanted subcutaneously with a piece of Passage 2 tumor measuring 2-5 mm^3 each. When a small palpable tumor was evident at 7-10 days, the mice with tumor take were randomized and subjected to subcutaneous injection of vehicle or AOAA (9 mg/kg/day) 6 days/week. Specimens were fixed with 10% formalin and embedded in paraffin. 5 μm sections were stained with hematoxylin and eosin. Each in vivo experiment was repeated at least twice.

[4] = tested on: peritumor microvessel blood flow; experiment: Tumor microvascular blood flow (laser Doppler); type: in vivo, mice; settings: intratumoral injection; AOAA 9 mg/kg, L-cysteine 1 mg/kg
Experimental: FIG. 6. L-Cysteine increases, while AOAA reduces microvessel blood flow in tumor bearing mice. Tumor bearing mice were anesthetized by i.p. injection of ketamine-xylazine and a laser Doppler (PeriFlux system 5000) was placed on top of the tumor for microvessel blood flow measurements. After a stabilization period, L-Cys or AOAA were injected subcutaneously in proximity of the tumor. […] Data represent mean±SEM of n=6 determinations.
Skin microvascular blood flow was measured using a PeriFlux 5000 laser-Doppler flowmeter. Mice bearing PTX were anesthetized by ketamine-xylazine (i.p.). The laser-Doppler probe was placed on top of the tumors and a stable basal signal was recorded. Changes in the subcutaneous microcirculatory perfusion were detected following intratumoral injections of either L-cysteine (1 mg/kg) or AOAA (9 mg/kg).

SMILES: NOCC(=O)O [AOAA, aminooxyacetic acid]
- inhibition at 300 µM (HCT116 colon cancer cell [1]; 300 μM, HCT116): 21%
- IC50 (HCT116 colon cancer cell [1]; read-out: IC50 (μM), inhibition of HCT116 colon cancer cell proliferation): 1780 µM
- IC50 (HCT116 colon cancer cell [1]; reference control, preliminary data, XCelligence, read-out: IC50, HCT116 proliferation (preliminary data)): ~300 µM
- concentrations at which antiproliferative effects and effects on cellular energetics manifest in cell-based assays (HCT116 colon cancer cell [2]): higher (millimolar) concentrations
- PDTX growth, second patient with stage II disease and mutant Kras allele [3]: growth inhibitory effects
- rate of PDTX growth, patient with stage III disease and Kras mutation [3]: reduced rate
- peritumor / skin microvessel blood flow [4]: significantly reduced; also recorded: marked decrease
